For data set [1], the system named is Secretion of Gastric Acids Induced by Carpronium Chloride. Briefly: Inhibitory effect on secretion of gastric acids induced by carpronium chloride (modified Shield's Method). Particulars: rat, i.v., carpronium chloride 8-10 μg/rat. In kind it is in vivo. The method, then:
Accordingly, the compounds of this invention are very useful as a unique type of anti-ulcer agent. […] The results obtained in this experiment are shown in Table 5 and Table 6 below. |Inhibitory Effects on Secretion of Gastric Acids Induced |by Carponium Chloride (dose: 8-10 μg/rat, i.v.)

For data set [2], the system named is Secretion of Gastric Acids Induced by Insuline. Briefly: Inhibitory effect on secretion of gastric acids induced by insuline (modified Shield's Method). The class given is in vivo. The settings on record: rat, i.v., insuline 4 ug/kg. The method, then: Accordingly, the compounds of this invention are very useful as a unique type of anti-ulcer agent. […] The results obtained in this experiment are shown in Table 5 and Table 6 below. |Inhibitory Effects on Secretion of Gastric Acids |Induced by Insuline (dose: 4 ug/kg, i.v.)

Another data set concerns Stress Ulcer. Briefly: Inhibitory Effect on Stress Ulcer in Rat (Water Immersion Restraint Method). In kind it is in vivo. Particulars: water immersion restraint 21° C.; for inhibition in vivo at 100 mg/kg / inhibition in vivo at 200 mg/kg / inhibition in vivo at 400 mg/kg: Rattus norvegicus. As to the method: In this experiment, test compounds were administered as the free base, in the form of the hydrochloric acid salts or in the form of the hydrate. | Inhibitory Effect on Stress Ulcer in Rat |Inhibitory Effect on Stress Ulcer in Rat |Inhibitory Effect on Stress Ulcer in Rat Note 2. Inhibitory effect on Stress Ulcer was examined according to Water Immersion Restraint Method disclosed in Japanese Journal of Pharmacology, Vol. 18, 9 (1968). Note 3. As test animals, seven rats weighing about 300 g were used for each dosage level. Note 4. Test compounds were injected intraperitoneally or administered orally before 30 minutes of water immersion restrain. Note 5. Test animals were immersed and restrained in water at 21° C. for 20 hours in experiment of Tables 2 and 3 and at 21° C. for 7 hours in experiment of Table 4.

A short description of data set [3]: stability of hydrate in methanol by thin layer chromatography. The class given is physicochemical. The settings on record: room temperature, 48 hours. As to the method:
(§1) It was also confirmed by thin layer chromatography that the hydrate was stable in methanol at room temperature for 48 hours. This means that it is possible to use methanol as a solvent in producing pharmaceutical preparations. It was further confirmed that a mixture of the hydrate of this invention with various kinds of additives such as carriers, diluents, etc., was stable under accelerated conditions, i.e., under high humidity at an elevated temperature for one month or under the light irradiation from 2,500 lux for one month.

Data set [4] can be described thus: isothermal absorption curve, stability of hydrate under high humidity. In kind it is physicochemical. As to the method: as §1
Data set [5] is described as follows: Stability of Mixture of Hydrate with Various Kinds of Additives (one month storage), color change. In kind it is physicochemical. More on the design: key to color change: --: no color change; ±: slight color change; +: clear color change. As to the method:
as §1
Stability of Mixture of Hydrate with Various
Kinds of Additives (one month storage)
The meaning of the symbols is as follows.
Samples were prepared by well mixing 100 mg of the hydrate with 100 mg of
the additive except for magnesium stearate and talc. In case of using
magnesium stearate or talc as the additive, 10 mg of the hydrate was used

The next data set deals with ulcer. Particulars: The Pharmacological Basis of Therapeutics, 4th Edition, 234 (1970); cited from earlier work.
A further data set concerns cardiovascular system. The settings on record: Pharmacometrics, Vol. 8, 835-846 (1974); cited from earlier work.
The mark [6] stands for this setting: ip, 20 h, intraperitoneal, 100 mg/kg.

Structures can show the parent of a compound that is named as a salt.

`COc1ccc(CCNC(=O)CNc2cccc(C(N)=O)c2)cc1OC.Cl` [Compound 2, 2-(3-carbamoylphenylamino)-N-(3,4-dimethoxyphenethyl)acetamide hydrochloride]: the values for the Inhibition in data set [1] (50 mg/kg), in data set [1] (100 mg/kg) and in data set [2] (10 mg/kg) were 0%, 0% and 80%, respectively. The inhibition in vivo at 100 mg/kg in the data set on Stress Ulcer (po, 20 h, 100 mg/kg) was found to be 5%. In the data set on Stress Ulcer (po, 20 h), this molecule gave an inhibition in vivo at 200 mg/kg of 21%. The same molecule showed an inhibition in vivo at 400 mg/kg in the data set with Stress Ulcer (po, 20 h) of 33%.

In turn, `COc1ccc(CCNC(=O)CNc2ccccc2)cc1OC` [drawing 8] yielded an inhibition in vivo at 100 mg/kg with Stress Ulcer (setting [6]) of 42%.

Turning to `COc1ccc(CCNC(=O)CNc2ccc(Cl)cc2C(N)=O)cc1OC`, in the data set with Stress Ulcer (setting [6]), at 100 mg/kg the inhibition in vivo was 34%.

In the case of `COc1ccc(CCNC(=O)CNc2ccccc2)cc1OC` [Compound 3, 2-(phenylamino)-N-(3,4-dimethoxyphenethyl)acetamide hydrochloride], in the data set on Stress Ulcer (po, 20 h, 100 mg/kg), 100 mg/kg produced 20% inhibition in vivo. In the data set with Stress Ulcer (po, 20 h), this molecule displayed an inhibition in vivo at 200 mg/kg of 20% and an inhibition in vivo at 400 mg/kg of 25%.

Turning to `COc1ccc(CCNC(=O)CNc2cccc(C(N)=O)c2)cc1OC` [Compound 4, 2-(3-carbamoylphenylamino)-N-(3,4-dimethoxyphenethyl)acetamide.3H2 O], the stability in methanol result in data set [3] is “stable”. Also, the “stability under high humidity” value in data set [4] (high humidity at an elevated temperature) is listed as “very stable”. For the same molecule, in data set [4] (isothermal absorption curve), the relative critical humidity entry is “had not relative critical humidity”. Besides, the color change entry is “--” in data set [5] (additive Calcium Phosphate Dibasic, one month storage, condition shown as drawing 6 (high humidity at an elevated temperature)); “--” in data set [5] (additive Calcium Phosphate Dibasic, one month, light 2500 lux); “--” in data set [5] (additive Cornstarch, one month storage, condition shown as drawing 6 (high humidity at an elevated temperature)); “--” in data set [5] (additive Cornstarch, one month, light 2500 lux); “--” in data set [5] (additive Crystalline Cellulose, one month storage, condition shown as drawing 6 (high humidity at an elevated temperature)); “--” in data set [5] (additive Crystalline Cellulose, one month, light 2500 lux). Further, the color change result in data set [5] (additive Hydroxypropylcellulose, one month storage, condition shown as drawing 6 (high humidity at an elevated temperature)) was “--”; in data set [5] (additive Hydroxypropylcellulose, one month, light 2500 lux), “--”; in data set [5] (additive Hydroxypropylmethylcellulose, one month storage, condition shown as drawing 6 (high humidity at an elevated temperature)), “±”; in data set [5] (additive Hydroxypropylmethylcellulose, one month, light 2500 lux), “--”; in data set [5] (additive Lactose, one month storage, condition shown as drawing 6 (high humidity at an elevated temperature)), “--”; in data set [5] (additive Lactose, one month, light 2500 lux), “--”. Further, the color change entry in data set [5] (additive Macrogol 6000, one month storage, condition shown as drawing 6 (high humidity at an elevated temperature)) was “--”; in data set [5] (additive Macrogol 6000, one month, light 2500 lux), “--”; in data set [5] (additive Magnesium Stearate, one month storage, condition shown as drawing 6 (high humidity at an elevated temperature)), “--”; in data set [5] (additive Magnesium Stearate, one month, light 2500 lux), “--”; in data set [5] (additive Mannitol, one month storage, condition shown as drawing 6 (high humidity at an elevated temperature)) it was “--”; in data set [5] (additive Mannitol, one month, light 2500 lux), “--”. For the same molecule, the color change entry was “--” in data set [5] (additive Polyvinyl Alcohol, one month storage, condition shown as drawing 6 (high humidity at an elevated temperature)); “--” in data set [5] (additive Polyvinyl Alcohol, one month, light 2500 lux); “--” in data set [5] (additive Sucrose, one month storage, condition shown as drawing 6 (high humidity at an elevated temperature)); “--” in data set [5] (additive Sucrose, one month, light 2500 lux); “--” in data set [5] (additive Talc, one month storage, condition shown as drawing 6 (high humidity at an elevated temperature)); “--” in data set [5] (additive Talc, one month, light 2500 lux). In data set [5] (in words, high humidity at an elevated temperature for one month or light irradiation from 2,500 lux for one month), the “stability of mixture with additives” value was “stable”. The molecule also registered an inhibition in vivo at 100 mg/kg in the data set with Stress Ulcer (po, 7 h, 100 mg/kg) of 23%. The same molecule had an inhibition in vivo at 200 mg/kg in the data set with Stress Ulcer (po, 7 h) of 36%. Moreover, in the data set on Stress Ulcer (po, 7 h), testing at 400 mg/kg gave an inhibition in vivo of 70%.

`COc1ccc(CCNC(=O)CNc2cc(OC)c(C(N)=O)cc2Cl)cc1OC`: in the data set on Stress Ulcer (setting [6]), at 100 mg/kg the inhibition in vivo was 21%.

Regarding `COc1ccc(CCNC(=O)CNC(=O)c2ccccc2OC)cc1OC`, in the data set with Stress Ulcer (setting [6]), the inhibition in vivo at 100 mg/kg came to 50%.

For the molecule `COc1ccc(CCNC(=O)CNc2ccc(C(N)=O)cc2)cc1OC`, testing at 100 mg/kg in the data set on Stress Ulcer (setting [6]) gave an inhibition in vivo of 20%.

Molecule `CNc1nc(Cl)c(SC)c(NCC(=O)NCCc2ccc(OC)c(OC)c2)n1` yielded an inhibition in vivo at 100 mg/kg in the data set on Stress Ulcer (setting [6]) of 17%.

For `COc1ccc(CCNC(=O)CNc2cc(N)ncn2)cc1OC`, in the data set with Stress Ulcer (setting [6]), the inhibition in vivo at 100 mg/kg was 27%.

`COc1ccc(CCNC(=O)CNc2cccc(C(N)=O)c2)cc1OC` [drawing 15] displayed an inhibition in vivo at 100 mg/kg in the data set with Stress Ulcer (setting [6]) of 53%.

As for `COc1ccc(C(N)=O)c(NCC(=O)NCCc2ccc(OC)c(OC)c2)c1`, in the data set on Stress Ulcer (setting [6]), at 100 mg/kg the inhibition in vivo was 44%.

The molecule `COc1ccc(CCNC(=O)CNc2ccc(Cl)c(C(N)=O)c2)cc1OC` had an inhibition in vivo at 100 mg/kg with Stress Ulcer (setting [6]) of 35%.

For the molecule `COc1ccc(CCNC(=O)CNc2cccc(C(N)=O)c2)cc1OC` [drawing 16], the “Inhibitory Effect” value with Stress Ulcer (intraperitoneal, 100 mg/kg, 20 hours) is on record as 52%.

For `COc1ccc(CCNC(=O)CNc2cc(Cl)ccc2C(N)=O)cc1OC` [drawing 11], in the data set with Stress Ulcer (setting [6]), the inhibition in vivo at 100 mg/kg stood at 38%.

For `COc1ccc(CCNC(=O)CNc2cccc(S(N)(=O)=O)c2)cc1OC`, the inhibition in vivo at 100 mg/kg in the data set with Stress Ulcer (setting [6]) worked out at 47%.

Consider `COc1ccc(CCNC(=O)CNc2cc(Cl)ccc2C(N)=O)cc1OC` [Compound 1, 2-(2-carbamoyl-5-chlorophenylamino)-N-(3,4-dimethoxyphenethyl)acetamide], for which the Inhibition in data set [1] (50 mg/kg) was 0%. The molecule also returned an Inhibition in data set [2] (50 mg/kg) of 50%. The molecule also yielded an inhibition in vivo at 100 mg/kg in the data set on Stress Ulcer (po, 20 h, 100 mg/kg) of 5%. In the data set on Stress Ulcer (po, 20 h), this molecule came in with an inhibition in vivo at 200 mg/kg of 17% and an inhibition in vivo at 400 mg/kg of 18%.

`COc1ccc(CCNC(=O)CNc2cccc(Cl)c2)cc1OC` yielded an inhibition in vivo at 100 mg/kg with Stress Ulcer (setting [6]) of 36%.

For the molecule `NCCc1ccc(O)c(O)c1` [Dopamine, 3,4-dihydroxyphenethylamine], the anti-ulcer activity result in the data set with ulcer was “has anti-ulcer activity”. In the data set on cardiovascular system, the “action on cardiovascular system” value is recorded as “acts strongly on cardiovascular system”.

For the molecule `CCN1CCCC1CNC(=O)c1cc(S(N)(=O)=O)ccc1OC` (centres unmarked) [Sulpiride, N-[(1-ethyl-2-pyrrolidinyl)methyl]-2-methoxy-5-sulfamoylbenzamide, reference compound], the inhibition in vivo at 100 mg/kg was determined as 27% in the data set on Stress Ulcer (setting [6]); 29% in the data set on Stress Ulcer (po, 7 h, 100 mg/kg); 5% in the data set on Stress Ulcer (po, 20 h, 100 mg/kg). Further, the inhibition in vivo at 200 mg/kg with Stress Ulcer (po, 7 h) came out at 20%; in the data set with Stress Ulcer (po, 20 h), 4%. The inhibition in vivo at 400 mg/kg in the data set on Stress Ulcer (po, 7 h) was 39%; in the data set on Stress Ulcer (po, 20 h), 11%.

The Inhibition is the change of the read-out against control, counted positive when it falls. Broadly, the inhibition in vivo is the relative decrease from the control value, in per cent.

These data come from patent US4297357A, “N-Phenethylacetamide compounds and process for preparation thereof” (Daiichi Seiyaku Co., Ltd., priority 1978, dated 1981).
